Columns and labels:
[1] = system: rabbit serum obtained by immunizing a rabbit with the SARS-CoV strain Frankfurt 1; type: binding; parameters: Binding of a rabbit serum to linear peptides / Binding of a rabbit serum to looped peptides / Rabbit serum linear peptides / Rabbit serum looped peptides / Binding of a rabbit serum to linear peptides of protein N of SARS-CoV Urbani (Rabbit serum linear peptides) / Binding of a rabbit serum to looped/cyclic peptides of protein N of SARS-CoV Urbani (Rabbit serum looped peptides): unit not given here
[2] = system: control sera (pooled serum of ten healthy LUMC hospital workers; commercial negative donor pooled serum from the Dutch bloodbank); type: binding, human; parameters: Binding of Control serum LUMC to linear peptides / Binding of Control serum Blood-bank to linear peptides / Binding of Control serum LUMC to looped peptides / Binding of Control Serum Blood-Bank to Looped peptides / Binding of Control serum LUMC to linear peptides of the protein M of SARS-CoV Urbani / Binding of Control serum Blood-bank to linear peptides of the protein M of SARS-CoV Urbani / Binding of Control serum LUMC to looped peptides of the protein M of SARS-CoV Urbani / Binding of Control Serum Blood-Bank to Looped peptides of the protein M of SARS-CoV Urbani: unit not given here
[3] = system: recombinant human anti-SARS-CoV antibody 03-018; type: binding; parameters: Binding of antibody 03-018 to linear peptides of the N protein of SARS-CoV Urbani / Binding of antibody 03-018 to looped/cyclic peptides of the N protein of SARS-CoV Urbani: unit not given here
[4] = system: antibodies in sera from SARS patients (sera 1a, 1b, 2, 6, 37, 62, London, SARS-yellow, SARS-green); type: binding, human; parameters: Binding of serum 6 to linear peptides of protein X1 of SARS-CoV Urbani / Binding of serum 37 to linear peptides of protein X1 of SARS-CoV Urbani / Binding of serum 6 to looped/cyclic peptide (PEPSCAN-ELISA) / Binding of serum 37 to looped/cyclic peptide (PEPSCAN-ELISA) / Binding of serum 37 to looped/cyclic peptides of protein X1 of SARS-CoV Urbani / Binding of serum 6 to linear peptides of protein X2 / Binding of serum 37 to linear peptides of protein X2 / Binding of serum 37 to looped/cyclic peptides of protein X2 of SARS-CoV Urbani / Binding of serum 6 to linear peptides of protein M of SARS-CoV Urbani / Binding of serum 37 to linear peptides of protein M of SARS-CoV Urbani / Binding of serum 6 to looped/cyclic peptides of protein M of SARS-CoV Urbani / Binding of serum 37 to looped/cyclic peptides of protein M of SARS-CoV Urbani / Binding of serum 6 to linear peptides of protein X3 of SARS-CoV Urbani / Binding of serum 37 to linear peptides of protein X3 of SARS-CoV Urbani / Binding of serum 37 to looped/cyclic peptides of protein X3 of SARS-CoV Urbani / Binding of serum 6 to linear peptides of protein X4 of SARS-CoV Urbani / Binding of serum 37 to linear peptides of protein X4 of SARS-CoV Urbani / Binding of serum 37 to looped/cyclic peptides of protein X4 of SARS-CoV Urbani / Binding of serum 6 to linear peptides of protein X5 of SARS-CoV Urbani / Binding of serum 37 to linear peptides of protein X5 of SARS-CoV Urbani / Binding of serum 37 to looped/cyclic peptides of protein X5 of SARS-CoV Urbani / Binding of serum 6 to linear peptides of protein N of SARS-CoV Urbani / Binding of serum 37 to linear peptides of protein N of SARS-CoV Urbani / Binding of serum 6 to linear peptide (PEPSCAN-ELISA) / Binding of serum 1a to looped/cyclic peptides of protein N of SARS-CoV Urbani / Binding of serum 1b to looped/cyclic peptides of protein N of SARS-CoV Urbani / Binding of serum 2 to looped/cyclic peptides of protein N of SARS-CoV Urbani / Binding of serum 6 to looped/cyclic peptides of protein N of SARS-CoV Urbani / Binding of serum 37 to looped/cyclic peptides of protein N of SARS-CoV Urbani / Binding of serum 62 to looped/cyclic peptides of protein N of SARS-CoV Urbani / Binding of serum London to looped/cyclic peptides of protein N of SARS-CoV Urbani / Binding of serum SARS-green to looped/cyclic peptides of protein N of SARS-CoV Urbani: unit not given here

| Sequence | Binding of Control Serum Blood-Bank to Looped peptides [2] | Binding of Control serum Blood-bank to linear peptides [2] | Binding of serum 1a to linear peptides of protein N of SARS-CoV Urbani [4] | Binding of serum 1a to looped/cyclic peptides of protein N of SARS-CoV Urbani [4] | Binding of serum 1b to linear peptides of protein N of SARS-CoV Urbani [4] | Binding of serum 1b to looped/cyclic peptides of protein N of SARS-CoV Urbani [4] | Binding of serum 2 to linear peptides of protein N of SARS-CoV Urbani [4] | Binding of serum 2 to looped/cyclic peptides of protein N of SARS-CoV Urbani [4] | Binding of serum 6 to linear peptides of protein N of SARS-CoV Urbani [4] | Binding of serum 6 to looped/cyclic peptides of protein N of SARS-CoV Urbani [4] | Binding of serum 37 to linear peptides of protein N of SARS-CoV Urbani [4] | Binding of serum 37 to looped/cyclic peptides of protein N of SARS-CoV Urbani [4] | Binding of serum 62 to linear peptides of protein N of SARS-CoV Urbani [4] | Binding of serum 62 to looped/cyclic peptides of protein N of SARS-CoV Urbani [4] | Binding of serum London to linear peptides of protein N of SARS-CoV Urbani [4] | Binding of serum London to looped/cyclic peptides of protein N of SARS-CoV Urbani [4] | Binding of serum SARS-green to linear peptides of protein N of SARS-CoV Urbani [4] | Binding of serum SARS-green to looped/cyclic peptides of protein N of SARS-CoV Urbani [4] | Binding of serum SARS-yellow to linear peptides of protein N of SARS-CoV Urbani [4] | Binding of serum SARS-yellow to looped/cyclic peptides of protein N of SARS-CoV Urbani [4] | other results |
| --- | --- | --- | --- | --- | --- | --- | --- | --- | --- | --- | --- | --- | --- | --- | --- | --- | --- | --- | --- | --- | --- |
| NGPQSNQRSAPRITF | 0.7 | 0.8 | 0.2 | 0.3 | 0.1 | 0.2 | 0.2 | 0.5 | 0.2 | 0.3 | 0.8 | 0.8 | 0.5 | 0.6 | 0.4 | 0.5 | 0.4 | 0.5 | 0.5 | 0.6 | Recognition of the peptide by the rabbit serum [1]: also recognized; Binding of Control serum LUMC to linear peptides [2]: 0.6; Binding of Control serum LUMC to looped peptides [2]: 0.8; Recognition of the peptide by antibody 03-018 [3]: recognized |
| GMEVTPSGTWLTYHG | – | – | 0.3 | 0.4 | 0.1 | 0.2 | 0.1 | 0.4 | 0.2 | 0.3 | 0.5 | 0.7 | 0.6 | 0.8 | 0.5 | 0.5 | 0.2 | 0.4 | 0.7 | 0.5 | Binding of a rabbit serum to linear peptides of protein N of SARS-CoV Urbani (Rabbit serum linear peptides) [1]: 0.1; Binding of a rabbit serum to looped/cyclic peptides of protein N of SARS-CoV Urbani (Rabbit serum looped peptides) [1]: 0.4; Control Serum Blood-Bank Looped peptides [2]: 0.7; Control serum Blood-bank linear peptides [2]: 0.6; Control serum LUMC linear peptides [2]: 0.6; Control serum LUMC looped peptides [2]: 0.7; Binding of antibody 03-018 to linear peptides of the N protein of SARS-CoV Urbani [3]: 0.1; Binding of antibody 03-018 to looped/cyclic peptides of the N protein of SARS-CoV Urbani [3]: 0.2 |
| KEGIVWVATEGALNT | 0.6 | 0.7 | 0.2 | 0.3 | 0.1 | 0.2 | 0.2 | 0.4 | 0.2 | 0.2 | 0.7 | 0.6 | 0.6 | 0.5 | 0.4 | 0.4 | 0.5 | 0.3 | 0.7 | 0.5 | Binding of a rabbit serum to linear peptides of protein N of SARS-CoV Urbani (Rabbit serum linear peptides) [1]: 0.1; Binding of a rabbit serum to looped/cyclic peptides of protein N of SARS-CoV Urbani (Rabbit serum looped peptides) [1]: 0.4; Binding of Control serum LUMC to linear peptides [2]: 0.6; Binding of Control serum LUMC to looped peptides [2]: 0.7; Binding of antibody 03-018 to linear peptides of the N protein of SARS-CoV Urbani [3]: 0.1; Binding of antibody 03-018 to looped/cyclic peptides of the N protein of SARS-CoV Urbani [3]: 0.2 |
| SDNGPQSNQRSAPRI | 0.5 | 0.6 | 0.2 | 0.3 | 0.0 | 0.0 | 0.1 | 0.3 | 0.2 | 0.3 | 0.2 | 0.5 | 0.4 | 0.4 | 0.5 | 0.4 | 0.0 | 0.2 | 0.5 | 0.1 | Binding of a rabbit serum to linear peptides of protein N of SARS-CoV Urbani (Rabbit serum linear peptides) [1]: 0.1; Binding of a rabbit serum to looped/cyclic peptides of protein N of SARS-CoV Urbani (Rabbit serum looped peptides) [1]: 0.2; Binding of Control serum LUMC to linear peptides [2]: 0.5; Binding of Control serum LUMC to looped peptides [2]: 0.5; Binding of antibody 03-018 to linear peptides of the N protein of SARS-CoV Urbani [3]: 0.0; Binding of antibody 03-018 to looped/cyclic peptides of the N protein of SARS-CoV Urbani [3]: 0.2 |
